Measured values as given in US10780090B2, “Heteroaryl compounds useful as inhibitors of SUMO activating enzyme” (Millennium Pharmaceuticals, Inc., priority 2014, dated 2020).

Target: recombinant human SAE enzyme (Homo sapiens (Human), UniProt Q9UBT2)
Assay: SAE HTRF enzyme assay
Assay type: biochemical
Settings: for inhibition at 0.111 µM: read-out: Percent Inhibition
In short: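 Human SAE (0.11 nM) with 0.5 μM ATP, 0.125 μM Sumo-Flag and 0.01 μM Ubc9-GST in HEPES pH 7.5, 5 mM MgCl2, 250 μM GSH; 105 min at 24 °C. Stopped with EDTA; HTRF read after 2 h with Eu-anti-Flag and APC-anti-GST. Percent inhibition or IC50 reported.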

[1] = SAE inhibition at compound concentration 0.111 μM
[2] = SAE inhibition, class symbols, legend in nM

Sequence of recombinant human SAE enzyme (Q9UBT2 whole entry): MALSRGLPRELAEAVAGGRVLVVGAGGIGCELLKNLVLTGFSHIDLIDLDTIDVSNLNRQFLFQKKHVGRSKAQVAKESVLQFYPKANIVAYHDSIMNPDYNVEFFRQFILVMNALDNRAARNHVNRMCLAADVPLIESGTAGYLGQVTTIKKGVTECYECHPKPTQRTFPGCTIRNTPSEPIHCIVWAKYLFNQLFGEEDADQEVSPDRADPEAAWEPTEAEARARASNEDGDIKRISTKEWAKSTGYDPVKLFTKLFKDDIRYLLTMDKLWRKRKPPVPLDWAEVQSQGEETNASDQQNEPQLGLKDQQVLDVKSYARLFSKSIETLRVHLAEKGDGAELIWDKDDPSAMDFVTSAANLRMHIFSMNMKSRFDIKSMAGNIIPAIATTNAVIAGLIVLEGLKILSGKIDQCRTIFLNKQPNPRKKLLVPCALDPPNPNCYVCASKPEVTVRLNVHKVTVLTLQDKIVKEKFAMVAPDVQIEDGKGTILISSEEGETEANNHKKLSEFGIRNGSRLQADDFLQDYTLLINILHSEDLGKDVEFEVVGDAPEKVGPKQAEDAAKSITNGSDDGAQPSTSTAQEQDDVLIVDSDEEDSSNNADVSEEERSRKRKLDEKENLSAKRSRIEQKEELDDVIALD
Sequence of recombinant human SAE enzyme (Q9UBE0 whole entry partner): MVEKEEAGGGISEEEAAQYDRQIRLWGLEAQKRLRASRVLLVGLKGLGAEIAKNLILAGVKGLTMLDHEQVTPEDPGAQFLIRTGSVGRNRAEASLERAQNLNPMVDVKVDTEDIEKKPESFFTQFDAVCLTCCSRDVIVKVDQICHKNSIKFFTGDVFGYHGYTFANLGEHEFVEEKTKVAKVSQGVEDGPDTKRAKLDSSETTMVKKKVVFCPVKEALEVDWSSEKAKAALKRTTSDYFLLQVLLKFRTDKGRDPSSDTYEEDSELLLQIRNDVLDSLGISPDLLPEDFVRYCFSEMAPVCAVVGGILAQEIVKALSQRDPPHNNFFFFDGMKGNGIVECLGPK

Cc1cc(Cc2cccc(Cl)c2)sc1C(=O)c1cncnc1N[C@@H]1C[C@H](COS(N)(=O)=O)[C@@H](O)C1 [I-233, {(1R,2S,4R)-4-[(5-{[5-(3-Chlorobenzyl)-3-methyl-2-thienyl]carbonyl}pyrimidin-4-yl)amino]-2-hydroxycyclopentyl}methyl sulfamate]
inhibition at 0.111 µM (Concentration 0.111 μM): 22% | IC50 (class symbols A/B/C): 100 to 1000 nM

NS(=O)(=O)OC[C@H]1C[C@@H](Nc2ncncc2C(=O)c2cc([C@@H]3SCCc4ccc(Cl)cc43)cs2)[C@H](O)[C@@H]1O (mixture of isomers) [I-278, [(1R,2R,3S,4R)-4-{[5-({4-[(1R)-7-chloro-3,4-dihydro-1H-isothiochromen-1-yl]-2-thienyl}carbonyl)pyrimidin-4-yl]amino}-2,3-dihydroxycyclopentyl]methyl sulfamate and [(1R,2R,3S,4R)-4-{[5-({4-[(1S)-7-chloro-3,4-dihydro-1H-isothiochromen-1-yl]-2-thienyl}carbonyl)pyrimidin-4-yl]amino}-2,3-dihydroxycyclopentyl]methyl sulfamate]
Percent Inhibition (Concentration 0.111 μM): 98 | IC50 (class symbols A/B/C): < 10 nM

NS(=O)(=O)OC[C@H]1C[C@@H](Nc2ncncc2C(=O)c2cc(C(O)c3cccc(Cl)n3)cs2)C[C@@H]1O (single isomer, unassigned) [I-29a, [(1R,2S,4R)-4-{[5-({4-[(S)-(6-chloropyridin-2-yl)(hydroxy)methyl]-2-thienyl}carbonyl)pyrimidin-4-yl]amino}-2-hydroxycyclopentyl]methyl sulfamate or [(1R,2S,4R)-4-{[5-({4-[(R)-(6-chloropyridin-2-yl)(hydroxy)methyl]-2-thienyl}carbonyl)pyrimidin-4-yl]amino}-2-hydroxycyclopentyl]methyl sulfamate]
Percent Inhibition (Concentration 0.111 μM): 97 | IC50 (class symbols A/B/C): < 10 nM

N[C@H](c1cccc(Cl)c1)c1csc(C(=O)c2cncnc2N[C@@H]2C[C@H](COS(N)(=O)=O)[C@@H](O)C2)c1 (single isomer, unassigned) [I-36a, [(1R,2S,4R)-4-{[5-({4-[(R)-amino(3-chlorophenyl)methyl]-2-thienyl}carbonyl)pyrimidin-4-yl]amino}-2-hydroxycyclopentyl]methyl sulfamate or [(1R,2S,4R)-4-{[5-({4-[(S)-amino(3-chlorophenyl)methyl]-2-thienyl}carbonyl)pyrimidin-4-yl]amino}-2-hydroxycyclopentyl]methyl sulfamate]
Percent Inhibition (Concentration 0.111 μM): 100 | IC50 (class symbols A/B/C): < 10 nM

Cc1sc(C(=O)c2cncnc2N[C@@H]2C[C@H](COS(N)(=O)=O)[C@@H](O)C2)cc1[C@@H]1OCCc2ccccc21 [I-256b, [(1R,2S,4R)-4-{[5-({4-[(1R)-3,4-Dihydro-1H-isochromen-1-yl]-5-methyl-2-thienyl}carbonyl)pyrimidin-4-yl]amino}-2-hydroxycyclopentyl]methyl sulfamate]
inhibition at 0.111 µM (Concentration 0.111 μM): 99% | IC50 (class symbols A/B/C): < 10 nM

NS(=O)(=O)OC[C@H]1C[C@@H](Nc2ncncc2C(=O)c2cc(Cn3cc(C(F)(F)F)cn3)cs2)C[C@@H]1O [I-130, [(1R,2S,4R)-2-hydroxy-4-({5-[(4-{[4-(trifluoromethyl)-1H-pyrazol-1-yl]methyl}-2-thienyl)carbonyl]pyrimidin-4-yl}amino)cyclopentyl]methyl sulfamate]
inhibition at 0.111 µM (Concentration 0.111 μM): 97% | IC50 (class symbols A/B/C): < 10 nM

Cc1sc(C(=O)c2cncnc2N[C@@H]2C[C@H](COS(N)(=O)=O)[C@@H](O)C2)cc1[C@@H]1OCCc2sccc21 (mixture of isomers) [I-275, [(1R,2S,4R)-4-{[5-({4-[(4S)-6,7-dihydro-4H-thieno[3,2-c]pyran-4-yl]-5-methyl-2-thienyl}carbonyl)pyrimidin-4-yl]amino}-2-hydroxycyclopentyl]methyl sulfamate and [(1R,2S,4R)-4-{[5-({4-[(4R)-6,7-dihydro-4H-thieno[3,2-c]pyran-4-yl]-5-methyl-2-thienyl}carbonyl)pyrimidin-4-yl]amino}-2-hydroxycyclopentyl]methyl sulfamate]
Percent Inhibition (Concentration 0.111 μM): 97 | IC50 (class symbols A/B/C): < 10 nM

CC(C)(C)OC(=O)N1CCc2ccc(Cl)cc2[C@@H]1c1csc(C(=O)c2cncnc2N[C@@H]2C[C@H](COS(N)(=O)=O)[C@@H](O)C2)c1.CC(C)(C)OC(=O)N1CCc2ccc(Cl)cc2[C@H]1c1csc(C(=O)c2cncnc2N[C@@H]2C[C@H](COS(N)(=O)=O)[C@@H](O)C2)c1 (mixture of isomers) [I-334, tert-butyl (1R)-7-chloro-1-(5-{[4-({(1R,3S,4R)-3-hydroxy-4-[(sulfamoyloxy)methyl]cyclopentyl}amino)pyrimidin-5-yl]carbonyl}-3-thienyl)-3,4-dihydroisoquinoline-2(1H)-carboxylate and tert-butyl (1S)-7-chloro-1-(5-{[4-({(1R,3S,4R)-3-hydroxy-4-[(sulfamoyloxy)methyl]cyclopentyl}amino)pyrimidin-5-yl]carbonyl}-3-thienyl)-3,4-dihydroisoquinoline-2(1H)-carboxylate]
Percent Inhibition [1]: 10% | IC50 [2]: 100 to 1000 nM

Cc1sc(C(=O)c2cncnc2N[C@@H]2C[C@H](COS(N)(=O)=O)[C@@H](O)C2)cc1[C@H]1OCCc2ccc(N3CCCC3)nc21 (mixture of isomers) [I-348, [(1R,2S,4R)-2-hydroxy-4-{[5-({5-methyl-4-[(8R)-2-(pyrrolidin-1-yl)-5,8-dihydro-6H-pyrano[3,4-b]pyridin-8-yl]-2-thienyl}carbonyl)pyrimidin-4-yl]amino}cyclopentyl]methyl sulfamate and [(1R,2S,4R)-2-hydroxy-4-{[5-({5-methyl-4-[(8S)-2-(pyrrolidin-1-yl)-5,8-dihydro-6H-pyrano[3,4-b]pyridin-8-yl]-2-thienyl}carbonyl)pyrimidin-4-yl]amino}cyclopentyl]methyl sulfamate]
Percent Inhibition [1]: 97% | IC50 [2]: < 10 nM

NS(=O)(=O)OC[C@H]1C[C@@H](Nc2ncncc2C(=O)c2cc([C@@]3(c4cccc(Cl)c4)CCCS3)cs2)C[C@@H]1O (mixture of isomers) [I-209, {(1R,2S,4R)-4-[(5-{[(2S)-2-(3-chlorophenyl)-2,3,4,5-tetrahydro-2,3′-bithiophen-5′-yl]carbonyl}pyrimidin-4-yl)amino]-2-hydroxycyclopentyl}methyl sulfamate and {(1R,2S,4R)-4-[(5-{[(2R)-2-(3-chlorophenyl)-2,3,4,5-tetrahydro-2,3′-bithiophen-5′-yl]carbonyl}pyrimidin-4-yl)amino]-2-hydroxycyclopentyl}methyl sulfamate]
Percent Inhibition (Concentration 0.111 μM): 45 | IC50 (class symbols A/B/C): 100 to 1000 nM

NS(=O)(=O)OC[C@H]1C[C@@H](Nc2ncncc2C(=O)c2cc(S(=O)(=O)c3ccccc3)cs2)C[C@@H]1O [I-200, {(1R,2S,4R)-2-Hydroxy-4-[(5-[4-(phenylsulfonyl)-2-thienyl]carbonyl}pyrimidin-4-yl)amino]cyclopentyl}methyl sulfamate]
Percent Inhibition (Concentration 0.111 μM): 62 | IC50 (class symbols A/B/C): 10 to 100 nM

Cc1sc(C(=O)c2cncnc2N[C@@H]2C[C@H](COS(N)(=O)=O)[C@@H](O)C2)cc1[C@H]1NCCc2ccc(Cl)cc21 [I-263b, [(1R,2S,4R)-4-{[5-({4-[(1S)-7-chloro-1,2,3,4-tetrahydroisoquinolin-1-yl]-5-methyl-2-thienyl}carbonyl)pyrimidin-4-yl]amino}-2-hydroxycyclopentyl]methyl sulfamate]
inhibition at 0.111 µM (Concentration 0.111 μM): 89% | IC50 (class symbols A/B/C): 10 to 100 nM

NS(=O)(=O)OC[C@H]1C[C@@H](Nc2ncncc2C(=O)c2cc([C@H](O)C3CCOCC3)c(Cl)s2)C[C@@H]1O (mixture of isomers) [I-174, [(1R,2S,4R)-4-{[5-({5-chloro-4-[(R)-hydroxy(tetrahydro-2H-pyran-4-yl)methyl]-2-thienyl}carbonyl)pyrimidin-4-yl]amino}-2-hydroxycyclopentyl]methyl sulfamate and [(1R,2S,4R)-4-{[5-({5-chloro-4-[(S)-hydroxy(tetrahydro-2H-pyran-4-yl)methyl]-2-thienyl}carbonyl)pyrimidin-4-yl]amino}-2-hydroxycyclopentyl]methyl sulfamate]
Percent Inhibition (Concentration 0.111 μM): 89 | IC50 (class symbols A/B/C): 10 to 100 nM

CC(C)c1ccccc1OCc1csc(C(=O)c2cncnc2N[C@@H]2C[C@H](COS(N)(=O)=O)[C@@H](O)C2)c1 [I-191, [(1R,2S,4R)-2-hydroxy-4-{[5-({4-[(2-isopropylphenoxy)methyl]-2-thienyl}carbonyl)pyrimidin-4-yl]amino}cyclopentyl]methyl sulfamate]
inhibition at 0.111 µM (Concentration 0.111 μM): 72% | IC50 (class symbols A/B/C): 10 to 100 nM

NS(=O)(=O)OC[C@H]1C[C@@H](Nc2ncncc2C(=O)c2cc(Cc3cccc(Cl)n3)cs2)C[C@@H]1O [I-71, [(1R,2S,4R)-4-{[5-({4-[(6-chloropyridin-2-yl)methyl]-2-thienyl}carbonyl)pyrimidin-4-yl]amino}-2-hydroxycyclopentyl]methyl sulfamate]
inhibition at 0.111 µM (Concentration 0.111 μM): 98%

Cc1cn(Cc2csc(C(=O)c3cncnc3N[C@@H]3C[C@H](COS(N)(=O)=O)[C@@H](O)C3)c2)c2ccccc12 [I-105, [(1R,2S,4R)-2-Hydroxy-4-{[5-({4-[(3-methyl-1H-indol-1-yl)methyl]-2-thienyl}carbonyl)pyrimidin-4-yl]amino}cyclopentyl]methyl sulfamate]
inhibition at 0.111 µM (Concentration 0.111 μM): 96% | IC50 (class symbols A/B/C): < 10 nM

NS(=O)(=O)OC[C@H]1C[C@@H](Nc2ncncc2C(=O)c2cc([C@H]3OCCc4cccc(Cl)c43)cs2)C[C@@H]1O [I-365, [(1R,2S,4R)-4-[[5-[4-[(1S)-chloroisochroman-1-yl]thiophene-2-carbonyl]pyrimidin-4-yl]amino]-2-hydroxy-cyclopentyl]methyl sulfamate and [(1R,2S,4R)-4-[[5-[4-[(1R)-8-chloroisochroman-1-yl]thiophene-2-carbonyl]pyrimidin-4-yl]amino]-2-hydroxy-cyclopentyl]methyl sulfamate]
Percent Inhibition [1]: 62% | IC50 [2]: 10 to 100 nM
